Data: patent publication US20100297109A1, “METHODS FOR INHIBITING FASCIN” (Cornell University, priority 2007, published 2010)

Key:
[1] = test system: human colon tumor Lovo cells; assay: Cell migration assay, Lovo cells; format: cell-based
[2] = target: T1, fascin His474 to Ala mutant (Homo sapiens, UniProt Q16658, H474A); assay: Actin bundling assay with fascin H474A mutant; format: biochemical
T1 construct: GST (N, cleaved yes); made in house; host or cells: Escherichia coli BL21 (pGEX4T-Fascin1)
Description: Identification of fascin as the protein target of migrastatin analogs. Whole cell lysates from 4T1 mouse breast tumor cells were made. After preclearing the cell lysate with immobilized neutravidin biotin binding protein (Pierce, IL, USA) to remove biotin and avidin-binding proteins, the cell lysates were loaded to a column packed with the biotin-labeled macroketone (conjugated to neutravidin beads). A control column packed with free biotin and neutravidin beads was run side-by-side. After washing the column with 10 bed volumes of lysis buffer with 300 mM NaCl, the bound proteins were eluted with 0.1 M Glycine-HCl at pH 2.8 according to the manufacturer's instruction. […] A 1-liter culture was grown to an A600 reading of 1.0 and then induced by addition of 0.3 mM isopropyl 1-thio-D-galactopyranoside (IPTG) for 12 hours at 25° C. […] Actin bundling activity was measured by low speed centrifugation assay and fluorescence microscopy. […] Both supernatants and pellets were dissolved in an equivalent volume of SDS sample buffer, and the amount of actin was determined by SDS-PAGE. For fluorescence microscopy, monomeric G-actin was polymerized as described above. […] The samples were mounted between a slide and a coverslip coated with poly-lysine and imaged by fluorescence microscopy. […] Both supernatants and pellets were dissolved in an equivalent volume of SDS sample buffer and analyzed by SDS-PAGE. […]

villin = target: T2, villin (Homo sapiens, UniProt P09327); assay: Migration of fascin siRNA-treated 4T1 cells rescued with villin; format: cell-based; parameters: expressed in transfected cells; host or cells: 4T1 mouse mammary tumor cells treated with fascin siRNA; details: villin over-expression in fascin siRNA-treated 4T1 cells
T2 sequence (P09327 1-827): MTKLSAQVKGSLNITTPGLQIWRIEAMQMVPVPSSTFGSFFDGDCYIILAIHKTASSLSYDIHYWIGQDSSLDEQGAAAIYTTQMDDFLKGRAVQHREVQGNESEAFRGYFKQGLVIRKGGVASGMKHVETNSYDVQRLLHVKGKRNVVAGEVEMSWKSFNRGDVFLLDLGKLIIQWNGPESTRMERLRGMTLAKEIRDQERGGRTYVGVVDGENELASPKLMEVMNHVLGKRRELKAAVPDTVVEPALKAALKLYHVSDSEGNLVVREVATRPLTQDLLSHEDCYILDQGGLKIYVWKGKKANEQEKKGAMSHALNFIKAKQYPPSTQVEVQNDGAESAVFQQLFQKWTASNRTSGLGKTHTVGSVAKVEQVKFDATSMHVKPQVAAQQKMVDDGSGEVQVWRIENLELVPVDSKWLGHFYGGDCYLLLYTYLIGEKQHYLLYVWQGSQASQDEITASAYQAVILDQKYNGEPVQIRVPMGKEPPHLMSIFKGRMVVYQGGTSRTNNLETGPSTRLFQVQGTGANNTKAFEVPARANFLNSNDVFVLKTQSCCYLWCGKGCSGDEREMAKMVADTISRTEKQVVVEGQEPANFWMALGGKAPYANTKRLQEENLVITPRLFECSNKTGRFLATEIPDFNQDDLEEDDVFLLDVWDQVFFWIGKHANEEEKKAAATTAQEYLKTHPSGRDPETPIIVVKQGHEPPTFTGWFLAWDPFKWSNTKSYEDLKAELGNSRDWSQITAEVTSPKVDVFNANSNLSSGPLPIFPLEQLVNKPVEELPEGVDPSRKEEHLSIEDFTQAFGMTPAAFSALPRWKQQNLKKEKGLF
Experimental: Boyden Chamber Cell Migration Assay. Cells (5×10^4) suspended in starvation medium were added to the upper chamber of an insert (6.5 mm diameter, 8-micrometer pore size, Becton Dickenson), and the insert was placed in a 24-well dish containing starvation medium with or without 10% FBS (Yang et al. 2005, Shan et al. 2006). When used, inhibitors were added to both chambers. Migration assays were carried out for 4-6 hours and cells were fixed with 3.7% formaldehyde. Cells were stained with crystal violet staining solution, and cells on the upper side of the insert were removed with a cotton swab. Three randomly selected fields (10× objectives) on the lower side of the insert were photographed, and the migrated cells were counted. The migration was expressed as either the average number of migrated cells in a field or as percentage of migrated cells in positive control. Percentage was calculated with the formula P=100×(M−Mnc)/Mpc, where P is the percentage of migrated cells, M is the number of migrated cells, Mnc is the number of migrated cells in negative controls, and Mpc is the number of migrated cells in positive controls.

Which results are given for `COC1C=CCCCCC(=O)CCC(C)=CC(C)C1O` (stereo not drawn) [macroketone, Migrastatin ketone]?
inhibition of migration [1]: inhibited the migration; sensitivity of actin bundling activity of fascin mutant [2]: resistant; sensitivity of rescued migration (villin): insensitive
